This is an account of results in patent US20140193463A1, “PEPTIDE FOR INHIBITING DIPEPTIDYL-PEPTIDASE IV” (CHINA MEDICAL UNIVERSITY, priority 2013, published 2014).

Residues, ends and D or L forms follow the SMILES beside them.

The target of assay [1] is T1, Dipeptidyl-peptidase IV (D7052, from porcine kidney) (Sus scrofa, UniProt P22411).
T1 construct: Dipeptidyl-peptidase IV (D7052, from porcine kidney); purchased Sigma-Aldrich D7052; host or cells: porcine kidney (tissue-derived)
The assay can be described thus: Determination of DPP-IV-inhibitory activity (Gly-Pro-p-nitroanilide substrate, absorbance 405 nm). The format is biochemical. The note with it: synthetic peptides and diprotin A, present example (FIG. 4A-4C). The procedure: Atlantic salmon (Salmo salar) fish skins, processing byproducts recovered from fresh skin-off fillets, were supplied by Albion Fisheries Ltd. (Vancouver, BC, Canada). The fish skins were transferred on ice, vacuum packed, and stored at −25° C. until use. Three food-grade proteolytic enzymes were donated by Neova Technologies Inc. (Abbotsford, BC, Canada). Alcalase 2.4 L FG (from Bacillus licheniformis, 2.4 AU/g) and Flavourzyme 1000 L (from Aspergillus oryzae, 1000 LAPU/g) were products from Novo-zymes North America Inc. (Salem, N.C., […]), whereas bromelain (from pineapple stem, 2000 GDU/g) was manufactured by Ultra Bio-Logics Inc. (Montreal, QC, Canada), Dipeptidyl-peptidase IV (D7052, from porcine kidney), Gly-Prop-nitroanilide hydrochloride, trichloroacetic acid (TCA), L-leucine, and diprotin A were purchased from Sigma-Aldrich (St. Louis, Mo.). Trinitrobenzenesulfonic acid (TNBS) was obtained from Fluka Biochemika Oakville ON, Canada). Other chemicals and reagents used were of analytical grade and commercially available,
DPP-IV activity determination was performed in 96-well microplates. In order to measure an increment in absorbance at 405 nm, Gly-Pro-p-nitroanilide is used as a DPP-IV substrate. […] The absorbance of the resulting solution was measured at 405 nm with a microplate reader (iEMS reader MF; Labsystems, Helsinki, Finland).

The target in a further assay is DPP-IV (Homo sapiens, UniProt P27487). The note with it: previous studies; read-out: IC50 values against DPP-IV; cited from earlier work.
DPP-IV, sequence (P27487 whole entry, species assumed): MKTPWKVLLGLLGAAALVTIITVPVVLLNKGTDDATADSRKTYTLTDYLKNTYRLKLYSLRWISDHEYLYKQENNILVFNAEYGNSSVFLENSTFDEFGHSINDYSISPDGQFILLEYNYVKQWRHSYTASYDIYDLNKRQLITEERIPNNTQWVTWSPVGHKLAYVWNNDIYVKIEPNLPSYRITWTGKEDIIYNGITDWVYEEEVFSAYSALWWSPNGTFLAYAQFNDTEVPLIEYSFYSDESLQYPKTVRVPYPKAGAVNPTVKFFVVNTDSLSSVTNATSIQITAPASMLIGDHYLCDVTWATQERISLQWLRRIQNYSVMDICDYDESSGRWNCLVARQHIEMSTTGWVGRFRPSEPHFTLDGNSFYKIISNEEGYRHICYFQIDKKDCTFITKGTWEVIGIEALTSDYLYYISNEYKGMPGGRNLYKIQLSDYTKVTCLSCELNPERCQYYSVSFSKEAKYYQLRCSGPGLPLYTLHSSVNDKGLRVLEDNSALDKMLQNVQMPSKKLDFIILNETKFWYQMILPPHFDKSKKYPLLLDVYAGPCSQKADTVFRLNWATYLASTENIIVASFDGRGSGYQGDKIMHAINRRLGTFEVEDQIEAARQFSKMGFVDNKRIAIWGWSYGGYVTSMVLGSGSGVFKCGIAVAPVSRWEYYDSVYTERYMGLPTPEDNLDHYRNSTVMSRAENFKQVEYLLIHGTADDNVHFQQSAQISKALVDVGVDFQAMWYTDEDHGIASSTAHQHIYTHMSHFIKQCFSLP

T1 sequence (P22411 whole entry): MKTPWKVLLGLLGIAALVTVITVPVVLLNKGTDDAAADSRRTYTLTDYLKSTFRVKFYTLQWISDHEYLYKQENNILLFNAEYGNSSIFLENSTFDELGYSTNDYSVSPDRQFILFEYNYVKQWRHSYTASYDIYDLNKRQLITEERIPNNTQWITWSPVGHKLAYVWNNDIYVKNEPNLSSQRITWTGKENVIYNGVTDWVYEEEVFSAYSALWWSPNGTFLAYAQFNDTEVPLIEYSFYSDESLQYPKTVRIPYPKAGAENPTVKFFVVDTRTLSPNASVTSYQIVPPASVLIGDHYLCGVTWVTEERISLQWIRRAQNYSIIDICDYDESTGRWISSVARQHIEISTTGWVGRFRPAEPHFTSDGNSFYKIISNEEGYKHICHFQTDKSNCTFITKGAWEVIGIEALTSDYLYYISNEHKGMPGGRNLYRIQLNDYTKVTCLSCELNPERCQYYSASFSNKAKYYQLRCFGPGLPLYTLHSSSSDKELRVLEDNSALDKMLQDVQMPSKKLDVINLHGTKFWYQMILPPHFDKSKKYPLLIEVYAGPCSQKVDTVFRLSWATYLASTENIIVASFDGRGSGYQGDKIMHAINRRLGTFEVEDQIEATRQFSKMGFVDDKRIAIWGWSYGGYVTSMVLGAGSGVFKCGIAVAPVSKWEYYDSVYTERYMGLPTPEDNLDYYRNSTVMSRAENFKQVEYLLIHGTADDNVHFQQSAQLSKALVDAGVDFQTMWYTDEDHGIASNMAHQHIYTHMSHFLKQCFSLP

By IC50 is commonly meant the point on the concentration scale where inhibition reaches its midpoint. `C[C@H](NC(=O)[C@@H]1CCCN1C(=O)CN)C(=O)N[C@@H](CCC(=O)O)C(=O)O` [Gly-Pro-Ala-Glu] (H-GPAE-OH; N-terminus and C-terminus assumed) had an IC50 in assay [1] of 49.6 µM.
For the compound “Ile-Pro-Ala [peptide prepared from β-lactoglobulin]”, the half-inhibitory concentration (IC50) on DPP-IV is 49 µM.
As for “VAGTWY [Val-Ala-Gly-Thr-Trp-Tyr, peptide prepared from β-lactoglobulin]”, at DPP-IV, the IC50 is 174 µM.
`C[C@H](NC(=O)CNC(=O)[C@@H]1CCCN1C(=O)CN)C(=O)O` [Gly-Pro-Gly-Ala] (H-GPGA-OH; N-terminus and C-terminus assumed) yielded an IC50 in assay [1] of 41.9 µM.
